14 compounds from patent publication US11919902B2, “Aryl-bipyridine amine derivatives as phosphatidylinositol phosphate kinase inhibitors” (HiberCell, Inc., priority 2017, dated 2024) can be followed below.

Test [1] deals with T1, GST tagged PIP4KtypeIIB (Homo sapiens, UniProt P78356).
T1 construct: made in house; host or cells: E. coli
T1 sequence (P78356 1-416): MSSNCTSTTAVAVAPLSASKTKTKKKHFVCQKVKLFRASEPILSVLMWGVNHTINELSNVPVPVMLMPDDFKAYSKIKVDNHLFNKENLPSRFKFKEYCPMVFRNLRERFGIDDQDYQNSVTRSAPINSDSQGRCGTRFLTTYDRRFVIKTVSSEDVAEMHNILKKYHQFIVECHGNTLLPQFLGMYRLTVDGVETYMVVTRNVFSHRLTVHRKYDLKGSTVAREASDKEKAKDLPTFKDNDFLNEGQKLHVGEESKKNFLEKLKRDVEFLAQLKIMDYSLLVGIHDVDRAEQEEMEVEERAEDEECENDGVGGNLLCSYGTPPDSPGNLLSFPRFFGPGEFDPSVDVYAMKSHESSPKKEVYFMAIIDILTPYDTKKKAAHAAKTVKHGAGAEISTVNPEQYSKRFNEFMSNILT
The test can be described thus: Trans-FI P kinase assay PIP4K2B (PIP4KtypeIIB inhibition assay). It counts as biochemical. The following applies: Table 4; compounds listed under IC50 range headings; 100 uM GTP, 5 nM PIP4KIIB; read-out: Trans-FI P kinase assays: PIP4K2B IC50. The source says: GST tagged PIP4KtypeIIA and B enzymes were overexpressed in E. Coli and purified to >80% homogeneity. Phosphatidyl inositol-5-phosphate (PI5P, Cat. #850152, Avanti Polar Lipids Inc.) was used as the lipid substrate and phosphatidyl ethanolamine (DOPE 18:1, Cat. #850725, Avanti Polar Lipids Inc.) was used as the carrier lipid for assays. Ultrapure ATP and GTP was purchased from Bellbrooke Labs. ADP Glo reagents were obtained from Promega. Transcreener FI reagent was obtained from Bellbrooke labs.
1. HEPES buffer mix: 200 mM HEPES pH 7.4, 50 mM MgCl2, 0.05% v/v triton×100
2. HNE buffer: 20 mM HEPES, pH 7.4, 100 mM NaCl, 0.5 mM EGTA
3. H:E buffer: 30 mM HEPES, pH 7.4, 1 mM EGTA
GST-tagged PIP4KtypeIIB (3.4 uL, 2.77 mg/mL) was diluted to 5 mL using HNE buffer to yield 5× enzyme stock (25 nM)
Lipid Preparation: In a 10 mL pyrex glass vial, lug of PI5P and lug of DOPE were suspended in 2.5 mL of HEPES buffer mix and 2.5 mL of H:E buffer. The contents were mixed and sonicated for 3 min to yield a translucent lipid stock.
Compound Preparation: Compounds were stored as 5 mM stocks in neat DMSO as room temperature in glass vials. 5 mM stocks were diluted to 2 mM and then serially diluted (3×) in neat DMSO in 96 well polypropylene plates. From the serially diluted stocks, 3 uL was delivered into 250 uL of 25% DMSO (in water) to generate 5× compound stocks. Typically, the highest compound conc. was 24 uM.
The assay volume was kept at 25 uL. To each well of the reaction plate, 10 uL of lipid stock (1:1 ratio PI5P:DOPE) was delivered. This was followed by the addition of 5 uL of compound in 25% DMSO. Then, to each well, 5 uL of 25 nM (5×) typeIIB enzyme was delivered. The contents were mixed well and incubated for 1 h at 27 C. After 1 h, reaction was initiated by adding 5 uL of 500 uM GTP and the contents were mixed well with a multi-channel pipetteman. The final concentration of the reagents are as follows: 50 mM HEPES, pH 7.3, 10 mM MgCl2, 20 mM NaCl, 0.01% v/v triton-X100, 5% DMSO, 100 uM GTP, 80 uM (2 ug) PI5P, 2 ug DOPE, and 5 nM PIP4KIIB Typically, the highest conc. of compounds was 4.8 uM and the lowest conc. was 0.
After 2 h, the reaction was quenched by adding 25 uL of transcreener FI reagent. The contents were incubated at RT for 1 h and the Fluorescence (Ex: 584 Em: 623) was read using Molecular Devices Paradigm plate reader. […] The blanks were averaged and subtracted from all other wells. Using a calibration curve, RFU was converted to uM GDP (product). IC50 was calculated by plotting the residual activity (expressed as % No inhibitor control) vs. log [Inh. conc.] Table 2 represents PI5P4K activity of compounds (Example No.) of the invention arranged in accordance with the inhibition of PIP4K2 A kinase assay.

The target of test [2] is T2, PIP4K2A (full length protein, SignalChem) (Homo sapiens, UniProt P48426).
T2 construct: 4 nM PIP4K2A (full length protein, SignalChem); purchased SignalChem
T2 sequence (P48426 1-406): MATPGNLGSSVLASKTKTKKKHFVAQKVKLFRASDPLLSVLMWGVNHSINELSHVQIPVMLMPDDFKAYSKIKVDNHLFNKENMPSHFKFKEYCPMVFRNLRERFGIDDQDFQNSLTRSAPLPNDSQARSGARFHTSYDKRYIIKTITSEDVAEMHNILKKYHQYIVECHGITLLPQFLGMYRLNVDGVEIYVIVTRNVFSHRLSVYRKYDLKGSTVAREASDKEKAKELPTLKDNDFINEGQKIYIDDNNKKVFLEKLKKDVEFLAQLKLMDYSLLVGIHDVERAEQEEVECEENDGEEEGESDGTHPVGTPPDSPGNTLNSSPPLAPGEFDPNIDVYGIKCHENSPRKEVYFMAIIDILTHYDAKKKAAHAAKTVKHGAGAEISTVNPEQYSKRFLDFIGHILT
In words: Kinase Assay PIP4K2 A (Sprint); ADP-Glo biochemical assay. The following applies: Table 2; compounds listed under IC50 range headings. The method, then:
Dilution series of the compounds were prepared in DMSO at 100 times the final assay concentration (n1=n0/3 in 10 points). The compounds were further diluted to three times the assay concentration in assay buffer (20 mM MOPS pH 7.2, 25 mM magnesium chloride, 0.005% Tween 20). 6 μL of the diluted compounds were added to a 384 well assay plate followed by 9 μL of a mix consisting of 4 nM PIP4K2A (full length protein, SignalChem) and 100 μM PI(5)P diC8 (Tebu-Bio). Enzyme and compounds were pre-incubated at room temperature for 15 min.
Then 3 μL of a solution containing 60 μM ATP (Promega) in assay buffer was added to the wells containing compound and enzyme and mixing was performed by pipetting several times. The reaction was incubated at room temperature for 1 h. Then 18 μL of ADP-Glo™ Reagent (Promega) was added to stop the kinase reaction and deplete the unconsumed ATP, mixing was performed by pipetting several times. The plate was incubated at room temperature for 40 min before addition of 36 μL of Kinase Detection Reagent (Promega) to convert ADP to ATP and introduce luciferase and luciferin to detect ATP. The reaction was incubated at room temperature for 40 min before the luminescence was measured in a in a Victor 3V 1420 multilabel counter (Perkin Elmer).
Percent inhibition of the compounds as compared to dimethyl sulfoxide treated control samples was calculated. Compound concentration versus percent inhibition were fitted to generate IC50 values.

By IC50 is commonly meant the concentration needed to halve the response being measured. As for `Cc1nc(CNC(=O)c2cc3c(-c4cncc(-c5ccc(N6CCCC6=O)cc5)c4)ccnc3[nH]2)oc1C` [Example 390], the figures for the concentration for half-maximal inhibition (IC50) in test [1] and in test [2] were 10 to 100 nM and 5 to 100 nM, respectively.

With `CC(C)n1cnnc1-c1ccc(-c2cc(-c3ccnc4oc(C(=O)NCC5CC5)cc34)cnc2N)cc1` [Example 392, 4-(6-amino-5-(4-(4-isopropyl-4H-1,2,4-triazol-3-yl)phenyl)pyridin-3-yl)-N-(cyclopropylmethyl)furo[2,3-b]pyridine-2-carboxamide], the concentration for half-maximal inhibition (IC50) lay in the range of 1 to 10 nM in test [1] and 100 to 1000 nM in test [2].

As to `C[C@@H]1CCC(=O)N1c1ccc(-c2cncc(-c3ccnc4c3cc3n4CCN(C)C3=O)c2)cc1` [Example 306, (R)-7-methyl-4-(5-(4-(2-methyl-5-oxopyrrolidin-1-yl)phenyl)pyridin-3-yl)-8,9-dihydropyrido[3′,2′:4,5]pyrrolo[1,2-a]pyrazin-6(7H)-one], the IC50 in test [1] fell in the range of 1 to 10 nM; in test [2] it was 5 to 100 nM.

Turning to `CCn1cnnc1-c1ccc(-c2cncc(-c3ccnc4c3cc3n4CCN(C)C3=O)c2)cc1` [Example 358, 4-(5-(4-(4-ethyl-4H-1,2,4-triazol-3-yl)phenyl)pyridin-3-yl)-7-methyl-8,9-dihydropyrido[3′,2′:4,5]pyrrolo[1,2-a]pyrazin-6(7H)-one], the half-inhibitory concentration (IC50) fell in the range of 1 to 10 nM in test [1] and 100 to 1000 nM in test [2].

Take `CC(C)n1cnnc1-c1ccc(-c2cc(-c3ccnc4c3cc3n4CCN(CC4CC4)C3=O)cnc2N)cc1` [Example 374, 4-(6-amino-5-(4-(4-isopropyl-4H-1,2,4-triazol-3-yl)phenyl)pyridin-3-yl)-7-(cyclopropylmethyl)-8,9-dihydropyrido[3′,2′:4,5]pyrrolo[1,2-a]pyrazin-6(7H)-one]: the values for the concentration for half-maximal inhibition (IC50) in test [1] and in test [2] were 1 to 10 nM and 100 to 1000 nM, respectively.

`Cc1ccc2nc(CNC(=O)c3cc4c(-c5cncc(-c6ccc(N7CCCC7=O)cc6)c5)ccnc4[nH]3)[nH]c2c1` [Example 320, N-((6-methyl-1H-benzo[d]imidazol-2-yl)methyl)-4-(5-(4-(2-oxopyrrolidin-1-yl)phenyl)pyridin-3-yl)-1H-pyrrolo[2,3-b]pyridine-2-carboxamide]: the values for the IC50 in test [1] and in test [2] were 100 to 1000 nM and 1000 to 2500 nM, respectively.

For `Cc1cc2nc(CNC(=O)c3cc4c(-c5cncc(-c6ccc(N7CCCC7=O)cc6)c5)ccnc4[nH]3)[nH]c2cc1C` [Example 315, N-((5,6-dimethyl-1H-benzo[d]imidazol-2-yl)methyl)-4-(5-(4-(2-oxopyrrolidin-1-yl)phenyl)pyridin-3-yl)-1H-pyrrolo[2,3-b]pyridine-2-carboxamide], the figures for the IC50 in test [1] and in test [2] were 100 to 1000 nM and 1000 to 2500 nM, respectively.

As to `CNC(=O)c1[nH]c2nccc(-c3cncc(-c4ccc(N5CCCC5=O)cc4)c3)c2c1C` [Example 313, N,3-dimethyl-4-(5-(4-(2-oxopyrrolidin-1-yl)phenyl)pyridin-3-yl)-1H-pyrrolo[2,3-b]pyridine-2-carboxamide], the half-maximal inhibitory concentration (IC50) in test [1] lay in the range of 100 to 1000 nM; in test [2], 1000 to 2500 nM.

For the compound `CN1CCn2c(cc3c(-c4cncc(-c5ccc(C(=O)N6C7CCC6CC7)cc5)c4)ccnc32)C1=O` [Example 382, 4-(5-(4-(7-azabicyclo[2.2.1]heptane-7-carbonyl)phenyl)pyridin-3-yl)-7-methyl-8,9-dihydropyrido[3′,2′:4,5]pyrrolo[1,2-a]pyrazin-6(7H)-one], the IC50 in test [1] and in test [2] was 100 to 1000 nM throughout.

In the case of `O=C(NCc1nc2ccccc2[nH]1)c1cc2c(-c3cncc(-c4ccc(N5CCCC5=O)cc4)c3)ccnc2[nH]1` [Example 322, N-((1H-benzo[d]imidazol-2-yl)methyl)-4-(5-(4-(2-oxopyrrolidin-1-yl)phenyl)pyridin-3-yl)-1H-pyrrolo[2,3-b]pyridine-2-carboxamide], the IC50 in test [1] was in the range of 10 to 100 nM; in test [2], 1000 to 2500 nM.

As to `CC(C)n1cnnc1-c1ccc(-c2cncc(-c3ccnc4[nH]c(C(=O)NCCOCCOCCOCCNC(=O)COc5cccc6c5C(=O)N(C5CCC(=O)NC5=O)C6=O)cc34)c2)cc1` (stereo not shown) [Example 389, N-(1-((2-(2,6-dioxopiperidin-3-yl)-1,3-dioxoisoindolin-4-yl)oxy)-2-oxo-6,9,12-trioxa-3-azatetradecan-14-yl)-4-(5-(4-(4-isopropyl-4H-1,2,4-triazol-3-yl)phenyl)pyridin-3-yl)-1H-pyrrolo[2,3-b]pyridine-2-carboxamide], the results for the IC50 in test [1] and in test [2] were 100 to 1000 nM and < 5000 nM, respectively.

With `CN1CCn2c(cc3c(-c4cncc(-c5ccc(-c6nncn6C(C)(C)C)cc5)c4)ccnc32)C1=O` [Example 377, 4-(5-(4-(4-(tert-butyl)-4H-1,2,4-triazol-3-yl)phenyl)pyridin-3-yl)-7-methyl-8,9-dihydropyrido[3′,2′:4,5]pyrrolo[1,2-a]pyrazin-6(7H)-one], the figures for the IC50 in test [1] and in test [2] were 1 to 10 nM and 5 to 100 nM, respectively.

For `CC(C)c1cncc(-c2ccc(-c3cncc(-c4ccnc5c4cc4n5CCN(C)C4=O)c3)cc2)c1` [Example 380, 4-(5-(4-(5-isopropylpyridin-3-yl)phenyl)pyridin-3-yl)-7-methyl-8,9-dihydropyrido[3′,2′:4,5]pyrrolo[1,2-a]pyrazin-6(7H)-one], the figures for the IC50 in test [1] and in test [2] were 2500 to 5000 nM and 1000 to 2500 nM, respectively.

Regarding `Cc1c[nH]c2nccc(-c3cnc(N)c(-c4ccc(N5CCCC5=O)cc4)c3)c12` [Example 309, 1-(4-(2-amino-5-(3-methyl-1H-pyrrolo[2,3-b]pyridin-4-yl)pyridin-3-yl)phenyl)pyrrolidin-2-one], the IC50 fell in the range of 10 to 100 nM in test [1] and 100 to 1000 nM in test [2].
